# In US11318110B2, “Pharmaceutical composition for reducing local fat and uses thereof” (Caliway Biopharmaceuticals Co., Ltd., priority 2015, dated 2022):
# Key:
# [1] = tested on: mature adipocytes (differentiated 3T3-L1 cells); test: Apoptosis of mature adipocytes, annexin V/PI flow cytometry (Experiment 8-2); type: cell-based; details: 50 ppm total drug (complexes: 20 ppm curcumin + 30 ppm second drug), 24 hours; DMSO control 0.8±0.2%
# Source text: The curcumin cell culture medium: curcumin was mixed with an appropriate amount of 0.5% DMSO solution to obtain a curcumin solution. The curcumin solution was mixed with a cell culture medium (product name: Dulbecco's Modified Eagle Medium, purchased from Gibco) to prepare the curcumin cell culture medium containing 50 ppm of curcumin, wherein, the volume ratio between the curcumin solution and the cell culture medium was 1:1000. The puerarin cell culture medium: puerarin (purchased from Sigma-Aldrich) was mixed with an appropriate amount of 0.5% DMSO solution to obtain a puerarin solution. The puerarin solution was mixed with a cell culture medium to prepare the puerarin cell culture medium containing 50 ppm of puerarin, wherein, the volume ratio between the puerarin solution and the cell culture medium is 1:1000. The quercetin cell culture medium: quercetin (purchased from Sigma-Aldrich) was mixed with an appropriate amount of 0.5% DMSO solution to obtain a quercetin solution. The quercetin solution was mixed with a cell culture medium to prepare the quercetin cell culture medium containing 50 ppm of quercetin, wherein, the volume ratio between the quercetin solution and the cell culture medium was 1:1000. The synephrine cell culture medium: synephrine (purchased from Sigma-Aldrich) was mixed with an appropriate amount of 0.5% DMSO solution to obtain a synephrine solution. The synephrine solution was mixed with a cell culture medium to prepare the synephrine cell culture medium containing 50 ppm of synephrine, wherein, the volume ratio between the synephrine solution and the cell culture medium was 1:1000. The curcumin-puerarin complex cell culture medium: curcumin and puerarin were mixed with an appropriate amount of 0.5% DMSO solution to obtain a curcumin-puerarin complex solution. […] The curcumin-quercetin complex cell culture medium: curcumin and quercetin were mixed with an appropriate amount of 0.5% DMSO solution to obtain a curcumin-quercetin complex solution. […] Experimental procedure to determine the lipolysis efficacy on mature adipocytes The adipocyte precursors 3T3-L1 cells (purchased from the Food Industry Research and Development Institute, Taiwan; abbreviated as BCRC) were seeded in 12-well plates, such that each well contained 1×10^5 cells. […] Annexin V protein (purchased from eBioscience) and propidium iodide (PI; purchased from eBioscience) were mixed with the cells in each group for a period of time, and then the percentage of cells labeled by annexin V protein and PI in each group was analyzed by flow cytometry to assess the percentage of mature adipocytes undergoing apoptosis. […] The data were presented as mean±SD and analyzed by one-way ANOVA. […]
# [2] = tested on: mature adipocytes (differentiated 3T3-L1 cells); test: Apoptosis of mature adipocytes, annexin V/PI flow cytometry (Experiment 10-2); type: cell-based; details: 50 ppm total drug (complexes: 20 ppm curcumin + 30 ppm hydrophilic drug), 24 hours; sterile water control 0.8±0.4%
# Source text: The curcumin cell culture medium: same as the preparation of the curcumin cell culture medium in Experiment 8-2. […] Caffeine (purchased from Sigma-Aldrich) was mixed with an appropriate amount of sterile water to obtain a caffeine solution. The caffeine solution was mixed with a cell culture medium to prepare the caffeine cell culture medium containing 50 ppm of caffeine. Wherein, the volume ratio of the caffeine cell culture medium and the cell culture medium was 1:1000. The L-carnitine cell culture medium: L-carnitine (purchased from Sigma-Aldrich) was mixed with an appropriate amount of sterile water to obtain a L-carnitine solution. The L-carnitine solution was mixed with a cell culture medium to prepare the caffeine cell culture medium containing 50 ppm of L-carnitine. Wherein, the volume ratio of the L-carnitine cell culture medium and the cell culture medium was 1:1000. The curcumin-caffeine complex cell culture medium: Curcumin and caffeine were mixed with an appropriate amount of sterile water to prepare a curcumin-caffeine complex solution. […] Wherein, the concentration of curcumin was 20 ppm, the concentration of caffeine was 30 ppm, and the volume ratio of the curcumin-caffeine complex solution and the cell culture medium was 1:1000. The curcumin-L-carnitine complex cell culture medium: Curcumin and L-carnitine were mixed with an appropriate amount of sterile water to prepare a curcumin-L-carnitine complex solution. […] Wherein, the concentration of curcumin was 20 ppm, the concentration of L-carnitine was 30 ppm, and the volume ratio of the curcumin-L-carnitine complex solution and the cell culture medium was 1:1000. […] Annexin V protein (purchased from eBioscience) and propidium iodide (PI; purchased from eBioscience) were mixed with the cells in each group for a period of time, and then the percentage of cells labeled by annexin V protein and PI in each group was analyzed by flow cytometry to assess the percentage of mature adipocytes undergoing apoptosis.
# [3] = tested on: lower inguinal subcutaneous fat of rats; test: Dosing frequency of curcumin-green tea extract complex composition, localized subcutaneous fat of rats (Experiment 9-2); type: in vivo; details: 10.3 mg/kg on days 1, 3, 5 (total 30.9 mg/kg); 20-day experiment; control 100.0±22.6%
# Description: (§1) Preparation of the sodium deoxycholate solution: same as the preparation of the sodium deoxycholate solution in Experiment 7-4.
# (§2) Preparation of the curcumin-green tea extract complex pharmaceutical composition: 0.8 g of curcumin was mixed with 150˜200 mL of dichloromethane and stirred at 150˜500 rpm to completely dissolve curcumin. 40 g of KOLLIPHOR® ELP (also known as CREMOPHOR® ELP, polyoxyl 35 castor oil, abbreviated as ELP) was added and stirred at 100˜300 rpm to volatilize dichloromethane. Once dichloromethane volatilized completely, normal saline for injection was slowly added to a total volume of 200 mL. Wherein, the normal saline for injection comprised 0.2 g of green tea extract. The solution was mixed well to obtain the curcumin-green tea extract complex solution comprising ELP. Said curcumin-green tea extract complex solution comprising ELP comprised drug-containing micelles, the total concentration of curcumin and green tea was 5 mg/mL, and the weight ratio of curcumin and green tea extract was 4:1
# (§3) The rats were randomly assigned into 4 groups, which were a high-fat diet control group, a sodium deoxycholate group, a high-dosing frequency curcumin-green tea extract group (abbreviated as high-dosing frequency group in this experiment), and a low-dosing frequency curcumin-green tea extract group (abbreviated as low-dosing frequency group). […]
# [4] = tested on: lower inguinal subcutaneous fat of rats; test: Dosing frequency of curcumin-resveratrol complex composition, localized subcutaneous fat of rats (Experiment 7-4); type: in vivo; details: 10.3 mg/kg on days 1, 3, 5 (total 30.9 mg/kg); 20-day experiment; control 100.0±22.6%
# Description: (§4) Preparation of the sodium deoxycholate solution: An appropriate amount of sodium deoxycholate was mixed with sterile water for injection to make the concentration of sodium deoxycholate 2.575 mg/mL. The solution was mixed well to obtain the sodium deoxycholate solution. Wherein, sodium deoxycholate (purchased from Sigma-Aldrich, cat #D6750) is the main ingredient of the local lipolysis injection formulation ATX-101 (brand name: KYBELLA®) in the market.
# (§5) Preparation of the curcumin-resveratrol complex pharmaceutical composition: same as the preparation of the curcumin-resveratrol complex solution comprising ELP described in Experiment 7-2. Wherein, the total concentration of curcumin and resveratrol was 5 mg/mL, and the ratio of curcumin to resveratrol was 4:1.
# (§6) The rats were randomly assigned into 4 groups, which were a high-fat diet control group, a sodium deoxycholate group, a high-dosing frequency curcumin-resveratrol group (abbreviated as high-dosing frequency group in this experiment), and a low-dosing frequency curcumin-resveratrol group (abbreviated as low-dosing frequency group in this experiment). The rats were fed in the same manner described in Experiment 2.
# (§7) The sodium deoxycholate group: The sodium deoxycholate solution was injected to the lower inguinal subcutaneous fat layer of rats in the sodium deoxycholate group. […]
# [5] = Dosing frequency of curcumin-resveratrol complex composition, body weight gain of rats (Experiment 7-4); type: in vivo; details: 10.3 mg/kg on days 1, 3, 5 (total 30.9 mg/kg); control 100.0±11.6%
# Description: as §4, §5, §6, §7
# [6] = Dosing frequency of curcumin-green tea extract complex composition, body weight gain of rats (Experiment 9-2); type: in vivo; details: 10.3 mg/kg on days 1, 3, 5 (total 30.9 mg/kg); control 100.0±11.6%
# Description: as §1, §2, §3
# [7] = tested on: rat somatic cells except adipocytes; test: Cytotoxicity test by MTT assay (Experiment 10-1); type: cell-based; details: 50 ppm
# Source text: Determine if 50 ppm of caffeine and L-carnitine have toxicity to cells other than adipocytes by MTT assay. Only if the drug is deemed non-toxic will lipolysis test be proceeded.
# [8] = tested on: lower inguinal subcutaneous fat of rats; test: Administered dosage of curcumin-resveratrol complex composition, localized subcutaneous fat of rats (Experiment 7-5); type: in vivo; details: 0.04 μg/kg injected on days 1-4; 14-day experiment; high-fat diet control 100±15.2%
# Description: LIPO-202 is a local lipolysis injection formulation currently undergoing clinical trials, and its main ingredient is salmeterol xinafonate. • (i) 1 mg of salmeterol xinafonate (purchased from Sigma-Aldrich) was mixed with an appropriate amount of methanol to a total volume of 1 mL to obtain a 1 mg/mL stock solution. • (ii) The stock solution was 10-fold serial diluted with sterile water to prepare a salmeterol xinafonate solution of a final concentration of 0.01 μg/mL, which is the LIPO-202 solution used in this experiment. same as the preparation of the curcumin-resveratrol complex solution comprising ELP described in Experiment 7-2. […] The rats were fed in the same manner described in Experiment 2. […] The LIPO-202 solution was injected to the lower inguinal subcutaneous fat layer of rats in the LIPO-202 group. […] The 1 mg/mL complex formula group: […] The 5 mg/mL complex formula group: The curcumin-resveratrol complex pharmaceutical composition was injected to the lower inguinal subcutaneous fat layer of rats in the 5 mg/mL complex formula group. […] The 10 mg/mL complex formula group: […] The 20 mg/mL complex formula group: […] Rats were injected once a day on day 1, 2, 3, and 4 of the experiment. The rats were fed with high-fat diet for the entire duration of the experiment. The experiment lasted for 14 days, and the rats were euthanized on day 15 by CO2.
Molecule,percentage of apoptotic cells [1] [%],percentage of apoptotic cells [2] [%],other results
O=c1c(O)c(-c2ccc(O)c(O)c2)oc2cc(O)cc(O)c12 [quercetin],1.8±0.6,,
COc1cc(/C=C/C(=O)CC(=O)/C=C/c2ccc(O)c(OC)c2)ccc1O [curcumin],78.4±5.4,78.4±5.4,
O=c1c(-c2ccc(O)cc2)coc2c([C@@H]3O[C@H](CO)[C@@H](O)[C@H](O)[C@H]3O)c(O)ccc12 [puerarin],2.0±1.6,,
CNCC(O)c1ccc(O)cc1 (centres unmarked) [synephrine],0.9±0.2,,
sodium deoxycholate,,,relative weight of the lower inguinal subcutaneous fat [3]: 88.8±16.7%; relative weight of the lower inguinal subcutaneous fat [4]: 88.8±16.7%; relative weight gain [5]: 100.2±12.6%; relative weight gain [6]: 100.2±12.6%
Cn1c(=O)c2c(ncn2C)n(C)c1=O [caffeine],,2.0±1.7,cytotoxicity (MTT assay) [7]: not cytotoxic
"OCc1cc(C(O)CNCCCCCCOCCCCc2ccccc2)ccc1O (centres unmarked) [LIPO-202, salmeterol xinafonate]",,,relative weight of the lower inguinal subcutaneous fat [8]: 97.8±12.8%
C[N+](C)(C)C[C@H](O)CC(=O)[O-] [L-carnitine],,1.7±0.5,cytotoxicity (MTT assay) [7]: not cytotoxic
